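Cells were grown in 96-well plates and exposed to each compound for 48 hours at five concentrations; endpoints were interpolated linearly between bracketing concentrations, or set to the highest concentration if not reached. GI50: concentration for 50% inhibition of growth.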 The source made the active and inactive calls. Rule as the data show it: active = GI50 up to about 1.1 µM and inactive = higher.
How the values were obtained:
Experiment in all cases: NCI-60 cell line screen, 48 h
HOP-18 = system: HOP-18
SF-295 = system: SF-295
NCI-H522 = system: NCI-H522
RXF 393 = system: RXF 393
HCT-116 = system: HCT-116
OVCAR-8 = system: OVCAR-8
SNB-78 = system: SNB-78
SNB-19 = system: SNB-19
NCI-H23 = system: NCI-H23
OVCAR-5 = system: OVCAR-5
KM12 = system: KM12
SK-OV-3 = system: SK-OV-3
HT-29 = system: HT-29
SNB-75 = system: SNB-75
UACC-62 = system: UACC-62
RXF 631 = system: RXF 631
LOX IMVI = system: LOX IMVI
UACC-257 = system: UACC-257
CCRF-CEM = system: CCRF-CEM
Malme-3M = system: Malme-3M
HOP-92 = system: HOP-92
XF498 = system: XF498
DMS-114 = system: DMS-114
SK-MEL-2 = system: SK-MEL-2
DMS-273 = system: DMS-273
SW-620 = system: SW-620
LXFL 529 = system: LXFL 529
ACHN = system: ACHN
EKVX = system: EKVX
HOP-62 = system: HOP-62
A549 = system: A549
HCC 2998 = system: HCC 2998
SK-MEL-5 = system: SK-MEL-5
M14 = system: M14
HCT-15 = system: HCT-15
M19-MEL = system: M19-MEL
IGROV-1 = system: IGROV-1
HL-60 = system: HL-60
SK-MEL-28 = system: SK-MEL-28
SF-539 = system: SF-539
DLD-1 = system: DLD-1
OVCAR-3 = system: OVCAR-3
UO-31 = system: UO-31
OVCAR-4 = system: OVCAR-4
KM-20L2 = system: KM-20L2
786-0 = system: 786-0
NCI-H460 = system: NCI-H460
TK-10 = system: TK-10
NCI-H226 = system: NCI-H226
COLO 205 = system: COLO 205
U-251 = system: U-251
SF-268 = system: SF-268
SN12C = system: SN12C
A498 = system: A498
K562 = system: K562
MOLT-4 = system: MOLT-4
CAKI-1 = system: CAKI-1
RPMI-8226 = system: RPMI-8226

Compound: CCCCCCCCCCCCCCCC(=O)NCC(OCC)OCC
- GI50 (HOP-18): > 100 µM (inactive)
- GI50 (SF-295): > 100 µM (inactive)
- GI50 (NCI-H522): > 100 µM (inactive)
- GI50 (RXF 393): > 100 µM (inactive)
- GI50 (HCT-116): > 100 µM (inactive)
- GI50 (OVCAR-8): > 100 µM (inactive)
- GI50 (SNB-78): > 100 µM (inactive)
- GI50 (SNB-19): > 100 µM (inactive)
- GI50 (NCI-H23): > 100 µM (inactive)
- GI50 (OVCAR-5): > 100 µM (inactive)
- GI50 (KM12): > 100 µM (inactive)
- GI50 (SK-OV-3): > 100 µM (inactive)
- GI50 (HT-29): > 100 µM (inactive)
- GI50 (SNB-75): > 100 µM (inactive)
- GI50 (UACC-62): > 100 µM (inactive)
- GI50 (RXF 631): > 100 µM (inactive)
- GI50 (LOX IMVI): > 100 µM (inactive)
- GI50 (UACC-257): > 100 µM (inactive)
- GI50 (CCRF-CEM): > 100 µM (inactive)
- GI50 (Malme-3M): > 100 µM (inactive)
- GI50 (HOP-92): > 100 µM (inactive)
- GI50 (XF498): > 100 µM (inactive)
- GI50 (DMS-114): > 100 µM (inactive)
- GI50 (SK-MEL-2): > 100 µM (inactive)
- GI50 (DMS-273): > 100 µM (inactive)
- GI50 (SW-620): > 100 µM (inactive)
- GI50 (LXFL 529): > 100 µM (inactive)
- GI50 (ACHN): > 100 µM (inactive)
- GI50 (EKVX): > 100 µM (inactive)
- GI50 (HOP-62): > 100 µM (inactive)
- GI50 (A549): > 100 µM (inactive)
- GI50 (HCC 2998): > 100 µM (inactive)
- GI50 (SK-MEL-5): > 100 µM (inactive)
- GI50 (M14): > 100 µM (inactive)
- GI50 (HCT-15): > 100 µM
- GI50 (M19-MEL): > 100 µM (inactive)
- GI50 (IGROV-1): > 100 µM (inactive)
- GI50 (HL-60): > 100 µM (inactive)
- GI50 (SK-MEL-28): > 100 µM (inactive)
- GI50 (SF-539): > 100 µM (inactive)
- GI50 (DLD-1): > 100 µM (inactive)
- GI50 (OVCAR-3): > 100 µM (inactive)
- GI50 (UO-31): > 100 µM (inactive)
- GI50 (OVCAR-4): > 100 µM (inactive)
- GI50 (KM-20L2): > 100 µM (inactive)
- GI50 (786-0): > 100 µM (inactive)
- GI50 (NCI-H460): > 100 µM (inactive)
- GI50 (TK-10): > 100 µM (inactive)
- GI50 (NCI-H226): > 100 µM (inactive)
- GI50 (COLO 205): > 100 µM (inactive)
- GI50 (U-251): > 100 µM (inactive)
- GI50 (SF-268): > 100 µM (inactive)
- GI50 (SN12C): > 100 µM (inactive)

Compound: C[C@]12CCc3nonc3C1CC[C@@H]1C2CC[C@]2(C)NC(=O)CCC12 (stereo partly drawn)
- GI50 (A498): > 100 µM (inactive)
- GI50 (HOP-18): > 100 µM (inactive)
- GI50 (SF-295): > 100 µM (inactive)
- GI50 (NCI-H522): > 100 µM (inactive)
- GI50 (RXF 393): > 100 µM (inactive)
- GI50 (HCT-116): > 100 µM (inactive)
- GI50 (OVCAR-8): > 100 µM (inactive)
- GI50 (SNB-78): > 100 µM (inactive)
- GI50 (SNB-19): > 100 µM (inactive)
- GI50 (NCI-H23): > 100 µM (inactive)
- GI50 (OVCAR-5): > 100 µM (inactive)
- GI50 (KM12): > 100 µM (inactive)
- GI50 (K562): > 100 µM (inactive)
- GI50 (SK-OV-3): > 100 µM (inactive)
- GI50 (HT-29): > 100 µM (inactive)
- GI50 (SNB-75): > 100 µM (inactive)
- GI50 (UACC-62): > 100 µM (inactive)
- GI50 (RXF 631): > 100 µM (inactive)
- GI50 (MOLT-4): > 100 µM (inactive)
- GI50 (LOX IMVI): > 100 µM (inactive)
- GI50 (UACC-257): > 100 µM (inactive)
- GI50 (CCRF-CEM): > 100 µM (inactive)
- GI50 (Malme-3M): > 100 µM (inactive)
- GI50 (HOP-92): > 100 µM (inactive)
- GI50 (CAKI-1): > 100 µM (inactive)
- GI50 (XF498): > 100 µM (inactive)
- GI50 (SK-MEL-2): > 100 µM (inactive)
- GI50 (DMS-273): > 100 µM (inactive)
- GI50 (SW-620): > 100 µM (inactive)
- GI50 (LXFL 529): > 100 µM (inactive)
- GI50 (ACHN): > 100 µM (inactive)
- GI50 (EKVX): > 100 µM (inactive)
- GI50 (HOP-62): > 100 µM (inactive)
- GI50 (A549): > 100 µM (inactive)
- GI50 (SK-MEL-5): > 100 µM (inactive)
- GI50 (M14): > 100 µM (inactive)
- GI50 (HCT-15): > 100 µM
- GI50 (M19-MEL): > 100 µM (inactive)
- GI50 (IGROV-1): > 100 µM (inactive)
- GI50 (HL-60): > 100 µM (inactive)
- GI50 (SK-MEL-28): > 100 µM (inactive)
- GI50 (SF-539): > 100 µM (inactive)
- GI50 (OVCAR-3): > 100 µM (inactive)
- GI50 (RPMI-8226): > 100 µM (inactive)
- GI50 (UO-31): > 100 µM (inactive)
- GI50 (OVCAR-4): > 100 µM (inactive)
- GI50 (KM-20L2): > 100 µM (inactive)
- GI50 (786-0): > 100 µM (inactive)
- GI50 (NCI-H460): > 100 µM (inactive)
- GI50 (TK-10): > 100 µM (inactive)
- GI50 (NCI-H226): > 100 µM (inactive)
- GI50 (COLO 205): > 100 µM (inactive)
- GI50 (U-251): > 100 µM (inactive)
- GI50 (SF-268): > 100 µM (inactive)
- GI50 (SN12C): > 100 µM (inactive)
